Data from US7074743B1, “Herbicidal composition comprising 4-iodo-2-[3-(4-methoxy-6-methyl-1,3,5-triazin-2-yl)ureidosulfonyl]benzoic esters” (priority 1995, dated 2006).

Experiments:
Assay type in all cases: in vivo
Apera spica venti = assay: Herbicidal action on APESV, visual scoring vs untreated, post-emergence 2-4 leaf stage; details: Table 1
Procedure: (§1) The examples given below were performed in the greenhouse and, in some cases, in field trials.
(§2) The herbicides, or combinations, were applied in cereals after the weeds had emerged naturally using plot sprayers. After application, the results, such as damage to the crop plants and effect on broad-leaved weeds/grass weeds were assessed by means of visual scoring. The herbicidal action was assessed qualitatively and quantitatively by comparing untreated and treated plots on the basis of the effect on plant growth and the development of chloroses and necroses down to the complete destruction of the weeds (0–100%). The application was effected when the crop plants and weeds were in the 2–4 leaf stage. The test was evaluated approximately 4 weeks after application.
(§3) In the greenhouse experiments, the crop plants and broadleaved weeds/grass weeds were grown in No. 13 pots and treated in the 2–4 leaf stage. The pots were subsequently placed in the greenhouse under good growth conditions (temperature, atmospheric humidity, water supply).
(§4) The assessments were carried out similarly to those in the field trials, i.e. visual scoring of the treated plants in comparison with untreated control variants. These assessments were carried out 3 weeks after applying the test preparations and their combinations. The experiments had been set up in two replications.
(§5) To assess the combination effects, the activities of the individual components were added and compared with the activity of the mixtures in equal doses. It was frequently observed that the efficacies of the combinations exceeded the total of the individual activities.
(§6) In cases with less clear effects, the expected value was calculated using Colby's formula and compared with the empirically determined result. The calculated efficacy of a combination which is expected in theory is determined is using S.R. Colby's formula: “Calculation of synergistic and antagonistic responses of herbicide combinations”, Weeds 15 (1967), pages 20 to 22.
(§7) [formula] where • X=% damage caused by herbicide A at a rate of ×kg a.i./ha; • Y=% damage caused by herbicide B at a rate of y kg a.i./ha; • Z=% damage caused by a further herbicide C at a rate of z kg a.i./ha; • E=expected value, i.e. expected damage caused by herbicides A+B (or A+B+C) at x+y (or x+y+z) kg a.i./ha.
(§8) Synergistic effects were assumed to be when the empirical value exceeded the expected value. In the case of combinations with individual components with the same active substances, comparisons via the total formula were also possible.

Triticum aestivum = assay: Damage to crop plant TRZAW, visual scoring vs untreated
Procedure: as §1, §2, §3, §4

Lolium multiflorum = assay: Herbicidal action on LOLMU, visual scoring vs untreated, post-emergence 2-4 leaf stage
Procedure: as §1, §2, §3, §4, §5, §6, §7, §8

Echinochloa crus galli = assay: Herbicidal action on ECHCR, visual scoring vs untreated, post-emergence 2-4 leaf stage
Procedure: as §1, §2, §3, §4, §5, §6, §7, §8

Zea mays = assay: Damage to crop plant ZEAMA, visual scoring vs untreated
Procedure: as §1, §2, §3, §4

Fallopia convolvulus = assay: Herbicidal action on FALCO, visual scoring vs untreated, post-emergence 2-4 leaf stage
Procedure: as §1, §2, §3, §4, §5, §6, §7, §8

Secale cereale = assay: Damage to crop plant SECCW, visual scoring vs untreated
Procedure: as §1, §2, §3, §4

Gallium aparine = assay: Herbicidal action on GALAP, visual scoring vs untreated, post-emergence 2-4 leaf stage
Procedure: as §1, §2, §3, §4, §5, §6, §7, §8

Viola arvensis = assay: Herbicidal action on VIOAR, visual scoring vs untreated, post-emergence 2-4 leaf stage; details: Table 7
Procedure: as §1, §2, §3, §4, §5, §6, §7, §8

Avena fatua = assay: Herbicidal action on AVEFA, visual scoring vs untreated, post-emergence 2-4 leaf stage; details: Table 11
Procedure: as §1, §2, §3, §4, §5, §6, §7, §8

Mercurialis annua = assay: Herbicidal action on MERAN, visual scoring vs untreated, post-emergence 2-4 leaf stage; details: Table 11
Procedure: as §1, §2, §3, §4, §5, §6, §7, §8

Abuthilon theophrastis = assay: Herbicidal action on ABUTHE, visual scoring vs untreated, post-emergence 2-4 leaf stage; details: Table 12; 2.5 g of ai/ha
Procedure: as §1, §2
(§9) In the greenhouse experiments, the crop plants and broadleaved weeds/grass weeds were grown in No. 13 pots and treated in the 2–4 leaf stage. […]
(§10) In cases with less clear effects, the expected value was calculated using Colby's formula and compared with the empirically determined result. The calculated efficacy of a combination which is expected in theory is determined is using S.R. Colby's formula: “Calculation of synergistic and antagonistic responses of herbicide combinations”, Weeds 15 (1967), pages 20 to 22. […]

Ambrosia elatior = assay: Herbicidal action on AMBEL, visual scoring vs untreated, post-emergence 2-4 leaf stage; details: Table 12; 2.5 g of ai/ha
Procedure: as §1, §2, §9, §10

COC(=O)c1ccc(I)cc1S(=O)(=O)NC(=O)Nc1nc(C)nc(OC)n1.[Na] [A), sodium salt of methyl 4-iodo-2-[3-(4-methoxy-6-methyl-1,3,5-triazin-2-yl)ureidosulfonyl]benzoate]
18%: TRZAW % damage (Triticum aestivum; Table 5, 80 g of a.i./ha)
5%: LOLMU % control (Lolium multiflorum; Table 2, 5 g of a.i./ha) | LOLMU % control (Lolium multiflorum; Table 3, 5 g of a.i./ha) | SECCW % damage (Secale cereale; Table 6, 15 g of a.i./ha) | SECCW % damage (Secale cereale; Table 10, 15 g of a.i./ha)
88%: ECHCR % control (Echinochloa crus galli; Table 4, 80 g of a.i./ha) | ECHCR % control (Echinochloa crus galli; Table 8, 80 g of a.i./ha) | FALCO % control (Fallopia convolvulus; Table 5, 10 g of a.i./ha) | FALCO % control (Fallopia convolvulus; Table 9, 10 g of a.i./ha) | AMBEL % control (Ambrosia elatior)
94%: MERAN % control (Mercurialis annua; 10 g of a.i./ha)
93%: APESV % control (Apera spica venti; 5 g of a.i./ha)
99%: FALCO % control (Fallopia convolvulus; Table 5, 80 g of a.i./ha) | FALCO % control (Fallopia convolvulus; Table 5, 160 g of a.i./ha) | GALAP % control (Gallium aparine; Table 7, 20 g of a.i./ha)
15%: TRZAW % damage (Triticum aestivum; Table 5, 40 g of a.i./ha) | TRZAW % damage (Triticum aestivum; Table 9, 40 g of a.i./ha)
35%: GALAP % control (Gallium aparine; Table 7, 2.5 g of a.i./ha)
0%: TRZAW % damage (Triticum aestivum; Table 1, 3 g of a.i./ha) | TRZAW % damage (Triticum aestivum; Table 1, 5 g of a.i./ha) | TRZAW % damage (Triticum aestivum; Table 1, 10 g of a.i./ha) | TRZAW % damage (Triticum aestivum; Table 1, 20 g of a.i./ha) | TRZAW % damage (Triticum aestivum; Table 2, 3 g of a.i./ha) | TRZAW % damage (Triticum aestivum; Table 2, 5 g of a.i./ha) | TRZAW % damage (Triticum aestivum; Table 2, 10 g of a.i./ha) | TRZAW % damage (Triticum aestivum; Table 2, 20 g of a.i./ha) | TRZAW % damage (Triticum aestivum; Table 3, 3 g of a.i./ha) | TRZAW % damage (Triticum aestivum; Table 3, 5 g of a.i./ha) | TRZAW % damage (Triticum aestivum; Table 3, 10 g of a.i./ha) | TRZAW % damage (Triticum aestivum; Table 3, 20 g of a.i./ha) | TRZAW % damage (Triticum aestivum; Table 5, 2.5 g of a.i./ha) | TRZAW % damage (Triticum aestivum; Table 5, 5 g of a.i./ha) | TRZAW % damage (Triticum aestivum; Table 5, 10 g of a.i./ha) | TRZAW % damage (Triticum aestivum; Table 7, 2.5 g of a.i./ha) | TRZAW % damage (Triticum aestivum; Table 7, 5 g of a.i./ha) | TRZAW % damage (Triticum aestivum; Table 9, 2.5 g of a.i./ha) | TRZAW % damage (Triticum aestivum; Table 9, 5 g of a.i./ha) | LOLMU % control (Lolium multiflorum; Table 2, 3 g of a.i./ha) | LOLMU % control (Lolium multiflorum; Table 3, 3 g of a.i./ha) | ZEAMA % damage (Zea mays; Table 4, 10 g of a.i./ha) | ZEAMA % damage (Zea mays; Table 4, 20 g of a.i./ha) | ZEAMA % damage (Zea mays; Table 4, 40 g of a.i./ha) | ZEAMA % damage (Zea mays; Table 4, 80 g of a.i./ha) | ZEAMA % damage (Zea mays; Table 8, 10 g of a.i./ha) | ZEAMA % damage (Zea mays; Table 8, 20 g of a.i./ha) | ZEAMA % damage (Zea mays; Table 8, 40 g of a.i./ha) | ZEAMA % damage (Zea mays; Table 8, 80 g of a.i./ha) | SECCW % damage (Secale cereale; Table 6, 5 g of a.i./ha) | SECCW % damage (Secale cereale; Table 6, 10 g of a.i./ha) | SECCW % damage (Secale cereale; Table 10, 5 g of a.i./ha) | SECCW % damage (Secale cereale; Table 10, 10 g of a.i./ha)
80%: ECHCR % control (Echinochloa crus galli; Table 4, 40 g of a.i./ha) | ECHCR % control (Echinochloa crus galli; Table 8, 40 g of a.i./ha) | AVEFA % control (Avena fatua; 10 g of a.i./ha)
98%: APESV % control (Apera spica venti; 20 g of a.i./ha) | FALCO % control (Fallopia convolvulus; Table 5, 40 g of a.i./ha) | FALCO % control (Fallopia convolvulus; Table 9, 40 g of a.i./ha) | GALAP % control (Gallium aparine; Table 11, 10 g of a.i./ha) | VIOAR % control (Viola arvensis; 20 g of a.i./ha)
68%: LOLMU % control (Lolium multiflorum; Table 5, 2.5 g of a.i./ha)
75%: LOLMU % control (Lolium multiflorum; Table 5, 5 g of a.i./ha) | ECHCR % control (Echinochloa crus galli; Table 4, 20 g of a.i./ha) | GALAP % control (Gallium aparine; Table 11, 5 g of a.i./ha) | VIOAR % control (Viola arvensis; 5 g of a.i./ha)
60%: GALAP % control (Gallium aparine; Table 7, 10 g of a.i./ha) | AVEFA % control (Avena fatua; 5 g of a.i./ha)
3%: ZEAMA % damage (Zea mays; Table 12, 2.5 g of ai/ha)
65%: ECHCR % control (Echinochloa crus galli; Table 4, 10 g of a.i./ha) | ECHCR % control (Echinochloa crus galli; Table 8, 10 g of a.i./ha)
10%: TRZAW % damage (Triticum aestivum; Table 5, 20 g of a.i./ha) | TRZAW % damage (Triticum aestivum; Table 7, 20 g of a.i./ha) | TRZAW % damage (Triticum aestivum; Table 9, 20 g of a.i./ha) | LOLMU % control (Lolium multiflorum; Table 2, 10 g of a.i./ha) | LOLMU % control (Lolium multiflorum; Table 3, 10 g of a.i./ha) | ABUTHE % control (Abuthilon theophrastis)
58%: GALAP % control (Gallium aparine; Table 7, 5 g of a.i./ha) | VIOAR % control (Viola arvensis; 2.5 g of a.i./ha)
83%: LOLMU % control (Lolium multiflorum; Table 5, 10 g of a.i./ha)
2%: TRZAW % damage (Triticum aestivum; Table 7, 10 g of a.i./ha) | TRZAW % damage (Triticum aestivum; Table 9, 10 g of a.i./ha)
70%: MERAN % control (Mercurialis annua; 5 g of a.i./ha)
28%: TRZAW % damage (Triticum aestivum; Table 5, 160 g of a.i./ha)
97%: APESV % control (Apera spica venti; 10 g of a.i./ha) | FALCO % control (Fallopia convolvulus; Table 5, 20 g of a.i./ha) | FALCO % control (Fallopia convolvulus; Table 9, 20 g of a.i./ha)
73%: ECHCR % control (Echinochloa crus galli; Table 8, 20 g of a.i./ha) | FALCO % control (Fallopia convolvulus; Table 5, 2.5 g of a.i./ha) | FALCO % control (Fallopia convolvulus; Table 9, 2.5 g of a.i./ha)
95%: VIOAR % control (Viola arvensis; 10 g of a.i./ha)
48%: LOLMU % control (Lolium multiflorum; Table 2, 20 g of a.i./ha) | LOLMU % control (Lolium multiflorum; Table 3, 20 g of a.i./ha)
85%: APESV % control (Apera spica venti; 3 g of a.i./ha) | FALCO % control (Fallopia convolvulus; Table 5, 5 g of a.i./ha) | FALCO % control (Fallopia convolvulus; Table 9, 5 g of a.i./ha)
